From patent US10233180B2, “Substituted nitrogen-containing heterocyclic derivatives, pharmaceutical compositions comprising the same and applications of antitumor thereof” (ZHEJIANG UNIVERSITY, priority 2014, dated 2019) come the findings set out here.

Where two headings read alike, the source gives them in different places.

Test [1] deals with Human ovarian cancer cell strain OVCAR-8. In words: MTT assay, inhibition of tumor cell growth in vitro, 72 h. The format is cell-based. The settings on record: OVCAR-8, MTT, read-out: Antitumor proliferative activities of tumor cell (IC50, μM) OVCAR-8. How it is done: (§1) First, inhibitory activity on tumor proliferation in vitro is determined and the structure activity relationship is preliminarily studied, in which different solid tumor cell strains are selected for determining the antitumor activities in vitro of the synthesized compounds.
(§2) Cell strains: Human ovarian cancer cell strain (OVCAR8), colon adenocarcinoma cell strain (HCT-116)
Medium: OVCAR8: RPMI 1640+Fetal Bovine Serum
(§3) Preparing method of medicines: Dissolving the medicine in DMSO to make a 50 mM stock solution, and diluting it according to a certain ratio to obtain 5 different concentrations.
(§4) Two selected tumor cells OVCAR8 and HCT-116 are incubated at 37° C. in a 5% CO2 incubator, which are subcultured when cells grow up to a density of 70˜90% (adherent cells are subcultured after digesting by Duck's EDTA) for later experiments.
(§5) Compounds are dissolved and diluted by dimethyl sulfoxide (DMSO), and tumor cells OVCAR8 and HCT-116 are seeded in a 96-well plate at a density of 4000 cells/200 μl/well, 1 μl of the compounds are added to each well with the final concentration of 50 μM, 10 μM, 2 μM, 0.4 μM and 0.08 μM, which is incubated for 72 h at 37° C. in a 5% CO2 incubator with DMSO (1%) as blank control.
(§6) The calculating formula of cell inhibitory rate is: cell inhibitory rate %=(the OD value of the control group−the OD value of the medication group)/the OD value of the control group×100%, the half maximal inhibitory concentration (IC50) is obtained by Bliss method.
In general terms: Tetrazolium assays rely on reduction of a dye to a coloured formazan, in cell work by metabolically active cells.

For a further test, the target named is T1, Akt1 (Homo sapiens, UniProt P31749).
T1 construct: purchased 32-021
In words: AKT1/PKBα KinEASE FP Fluorescein Green Assay (fluorescence polarization kinase kit). It counts as biochemical. The settings on record: 1 h reaction, read-out: Inhibitory activities against Akt1 (IC50). On the procedure:
Second, method for determining the inhibitory activities of substituted nitrogen-containing heterocyclic derivatives in the present invention against Akt1 enzyme:
The inhibitory activities of compounds against AKT1/PKBα are determined by using AKT1/PKBα KinEASE™ FP Fluorescein Green Assay (Green fluorescence detection system of Kinase).
Principle adopted by the fluorescence polarization detection of protein kinase B is a competitive reaction: the phosphorylated tracers labeled with fluorescence will compete with unlabeled phosphorylated products produced by reacting with protein kinase B to combine anti-serine antibodies. […] However, in the reaction mixture containing phosphorylated products, fewer tracers will combine with antibodies (fluorescent tracers are replaced from the antibodies), and signals sent our occur depolarizing. Therefore, the change of polarization is directly related to the activity of protein kinase B in the reaction.
Each of 0.25 μl of compounds with a concentration of 50 μM and the positive control are added to a 384-well plate at room temperature, and each sample is provided with three parallel wells, and then 10 μl of STK Substrate 3 Working Solution, 5 μl of AKT1/PKBα Working Solution, 10 μl of ATP Working Solution are added to each sample respectively, the mixtures are slightly vibrated and shaked for a few minutes. Reaction is carried out just after the adding 10 μl of ATP Working Solution, from this time, reacting for 1 h. After 1 h, 5 μl of STK Stop Mix and 5 μl of STK Antibody Mix are added to each sample respectively to stop the reaction. The samples are maintained for 4 h at room temperature after adding is completed, the polarization values of samples are determined by fluorescence polarization of Microplate Reader (Detection of the signals is valid within 24 h), the inhibitory rate of compounds against the enzyme is calculated by polarization value, and thereby IC50 is calculated.
Experiment is set up four control groups at the same time, which are Buffer Control Wells, Tracer Control Wells, No Enzyme Wells and blank control of dimethyl sulfoxide, respectively. Thus obtained data are used to calculate the inhibitory rate (the preparation methods of above various solution required for determining the activities of compounds against enzyme refer to the specification of the kit of AKT1/PKBα KinEASE™ FP Fluorescein Green Assay Catalog #32-021).
Background: Polarisation of emitted light reports the rotation of a fluorescent probe.

Test [2] has as its system human colon cancer cell strain HCT-116. In words: MTT assay, inhibition of tumor cell growth in vitro, 72 h. The format is cell-based. The settings on record: HCT-116, MTT, read-out: Antitumor proliferative activities of tumor cell (IC50, μM) HCT-116 (converted). On the procedure: as §1, §2
HCT-116: RPMI 1640+Fetal Bovine Serum
as §3, §4, §5, §6

T1 sequence (P31749 whole entry): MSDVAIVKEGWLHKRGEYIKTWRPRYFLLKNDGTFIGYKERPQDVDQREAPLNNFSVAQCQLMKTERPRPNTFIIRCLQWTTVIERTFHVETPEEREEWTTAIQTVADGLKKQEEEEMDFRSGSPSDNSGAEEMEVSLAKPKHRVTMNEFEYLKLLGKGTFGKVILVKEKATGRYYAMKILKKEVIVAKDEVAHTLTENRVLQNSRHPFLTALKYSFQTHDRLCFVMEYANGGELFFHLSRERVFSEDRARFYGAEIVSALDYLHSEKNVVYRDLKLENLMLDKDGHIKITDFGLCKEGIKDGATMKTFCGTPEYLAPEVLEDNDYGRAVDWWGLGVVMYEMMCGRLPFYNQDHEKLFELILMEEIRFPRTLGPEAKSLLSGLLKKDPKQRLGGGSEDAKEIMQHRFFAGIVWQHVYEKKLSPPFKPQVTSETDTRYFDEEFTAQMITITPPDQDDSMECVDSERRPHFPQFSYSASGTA

What is called IC50 is the concentration needed to halve the response being measured. Take `Cc1cnn(C)c1-c1cnc(C(=O)N[C@H]2CNCC[C@@H]2c2ccc(F)c(F)c2)cc1F` [Compound 61, 4-fluoro-5-(1,4-dimethyl-1H-pyrazol-5-yl)-N-((3R,4R)-4-(3,4-difluorophenyl)piperidin-3-yl)pyridinyl-2-formamide]: the results for the IC50 (in test [1] (Homo sapiens); at Akt1; in test [2] (Homo sapiens)) were 8.44 µM, 0.188 µM and 3.85 µM, respectively.
On the same counts, the results for `Cc1sc(C(=O)N[C@H]2CNCC[C@@H]2c2ccc(F)c(F)c2)nc1-c1c(Cl)cnn1C` (racemic) [Compound 20, 4-(4-chloro-1-methyl-1H-pyrazol-5-yl)-N-(3,4-trans-4-(3,4-difluorophenyl)piperidin-3-yl)-5-methylthiazole-2-formamide] are 9.91 µM, 0.012 µM and 2.11 µM.
“5-ethyl-1-methyl-4-(4-ethyl-1-methyl-1H-pyrazol-5-yl)-N-(3,4-trans-4-(piperidin-3-yl)piperidin-3-yl)-1H-pyrrole-2-formamide [Compound 17]”: the values for the half-inhibitory concentration (IC50) (in test [1]; on Akt1; in test [2]) were 1.43 µM, 0.028 µM and 3.4 µM, respectively.
Turning to `C[C@H]1CNC[C@@H](NC(=O)c2ccc(-c3c(Cl)cnn3C)s2)[C@@H]1c1cccc(F)c1` [Compound 150, 5-(4-chloro-1-methyl-1H-pyrazol-5-yl)-N-((3S, 4S, 5R)-4-(3-fluorophenyl)-5-methylpiperidin-3-yl)thiophene-2-formamide], the concentration for half-maximal inhibition (IC50) in test [1] (Homo sapiens) was 1.19 µM; at Akt1 it was 0.003 µM; in test [2] (Homo sapiens), 4.43 µM.
For `Cn1ncc(Cl)c1-c1ccc(C(=O)N[C@@H]2CNCC[C@H]2c2cccc(F)c2)cc1` [Compound 73, 4-(4-chloro-1-methyl-1H-pyrazol-5-yl)-N-((3S,4S)-4-(3-fluorophenyl)piperidin-3-yl)benzamide] the same measures were 2.45 µM, 0.007 µM and 1.21 µM.
For `CCc1c(-c2c(Cl)cnn2C)cc(C(=O)N[C@H]2CNCC[C@@H]2C2CCC(F)C2)n1C` (stereo partly drawn) [Compound 15, 5-ethyl-1-methyl-4-(4-chloro-1-methyl-1H-pyrazol-5-yl)-N-(3,4-trans-4-(3-fluorocyclopentanyl)piperidin-3-yl)-1H-pyrrole-2-formamide] the same measures were 1.26 µM, 0.052 µM and 2.04 µM.
As for `CN(C)CCC1C[C@@H](c2ccc(Cl)c(Cl)c2)[C@H](NC(=O)c2cc(-c3c(Cl)cnn3C)c(Cl)o2)CN1` (stereo partly drawn) [Compound 107, 5-chloro-4-(4-chloro-1-methyl-1H-pyrazol-5-yl)-N-((3S,4S)-4-(3,4-dichlorophenyl)-6-(2-(dimethylamino)ethyl)piperidin-3-yl)furan-2-formamide], the values for the IC50 (in test [1] (Homo sapiens); on Akt1; in test [2] (Homo sapiens)) were 1.01 µM, 0.014 µM and 1.08 µM, respectively.
As to `CCC[C@H]1CNC[C@@H](NC(=O)c2cc(-c3c(Cl)cnn3C)c(Cl)s2)[C@@H]1c1cccc(F)c1` [Compound 134, 5-chloro-4-(4-chloro-1-methyl-1H-pyrazol-5-yl)-N-((3S,4S,5R)-4-(3-fluorophenyl)-5-propylpiperidin-3-yl)thiophene-2-formamide], the concentration for half-maximal inhibition (IC50) was 0.53 µM in test [1] (Homo sapiens), 0.0003 µM on Akt1 and 0.69 µM in test [2] (Homo sapiens).
On the same counts, the results for `Cc1cnn(C)c1-c1cnc(C(=O)N[C@@H]2CNCC[C@H]2c2ccc(F)c(F)c2)cc1F` [Compound 62, 4-fluoro-5-(1,4-dimethyl-1H-pyrazol-5-yl)-N-((3S,4S)-4-(3,4-difluorophenyl)piperidin-3-yl)pyridinyl-2-formamide] are 6.67 µM, 0.626 µM and 31.1 µM.
For `Cn1ncc(Cl)c1-c1coc(C(=O)N[C@H]2CNC[C@@H]2c2ccc(F)c(F)c2)c1` (racemic) [Compound 66] the same measures were 3.48 µM, 0.345 µM and 3.22 µM.
